Measurements: PubChem BioAssay AID1845197 (Molecular Pharmacology Branch, DTP, NCI, 2023)

Tested on: 349418-098-R tumor spheroid viability
Assay: Anticancer human tumor 349418-098-R patient-derived lung adenocarcinoma cell line growth inhibition
Details: spheroids with HUVEC and MSC; for IC50: curve of first compound; for viability, T/C: stronger effect = lower value
Outline: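 Complex spheroids of malignant cells with endothelial cells and mesenchymal stem cells; agents alone or combined, from near clinical Cmax (or 10 microM if unknown) down in half-log steps, 0.25% DMSO final.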

[1] = second compound 0.003 µM, first compound 0.0949 µM
[2] = second compound 0.003 µM, first compound 0.3 µM
[3] = second compound 0.003 µM, first compound 0.949 µM
[4] = second compound 0.003 µM, first compound 3 µM
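Further: spheroids exposed to compound for 7 days before measurement.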
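Wherever viability, T/C is given: percent of vehicle control viability with 100% = DMSO-treated spheroids.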

`O=C(c1cc(Cc2n[nH]c(=O)c3ccccc23)ccc1F)N1CCN(C(=O)C2CC2)CC1` + CC[C@@]1(O)C(=O)OCc2c1cc1n(c2=O)Cc2cc3c(CN(C)C)c(O)ccc3nc2-1 showed an IC50 (second compound 0.003 µM) of 27400 nM, an IC50 (second compound 0.00949 µM) of 23400 nM and an IC50 (second compound 0.03 µM) of 4080 nM. For the same compound, the IC50 (second compound 0.0949 µM) was less than 94.9 nM, the IC50 (second compound 0.3 µM) was less than 94.9 nM and the viability, T/C [1] was 102%. It also gave a viability, T/C [2] of 96.3%, a viability, T/C [3] of 98% and a viability, T/C [4] of 97.6%. The viability, T/C (second compound 0.003 µM, first compound 9.49 µM) was 76%, the viability, T/C (second compound 0.003 µM, first compound 30 µM) was 47.8% and the viability, T/C (second compound 0.00949 µM, first compound 0.0949 µM) was 99.2%. For the same compound, the viability, T/C (second compound 0.00949 µM, first compound 0.3 µM) was 101%, the viability, T/C (second compound 0.00949 µM, first compound 0.949 µM) was 97.8% and the viability, T/C (second compound 0.00949 µM, first compound 3 µM) was 94.3%. For the same compound, the viability, T/C (second compound 0.00949 µM, first compound 9.49 µM) was 72.6%, the viability, T/C (second compound 0.00949 µM, first compound 30 µM) was 43.8% and the viability, T/C (second compound 0.03 µM, first compound 0.0949 µM) was 67.3%. The viability, T/C (second compound 0.03 µM, first compound 0.3 µM) was 72.8%, the viability, T/C (second compound 0.03 µM, first compound 0.949 µM) was 61.5% and the viability, T/C (second compound 0.03 µM, first compound 3 µM) was 58.8%. The viability, T/C (second compound 0.03 µM, first compound 9.49 µM) was 29.8%, the viability, T/C (second compound 0.03 µM, first compound 30 µM) was 12.8% and the viability, T/C (second compound 0.0949 µM, first compound 0.0949 µM) was 19.8%. For the same compound, the viability, T/C (second compound 0.0949 µM, first compound 0.3 µM) was 21.7%, the viability, T/C (second compound 0.0949 µM, first compound 0.949 µM) was 20.8% and the viability, T/C (second compound 0.0949 µM, first compound 3 µM) was 18%. For the same compound, the viability, T/C (second compound 0.0949 µM, first compound 9.49 µM) was 12%, the viability, T/C (second compound 0.0949 µM, first compound 30 µM) was 7.08% and the viability, T/C (second compound 0.3 µM, first compound 0.0949 µM) was 3.58%. It also gave a viability, T/C (second compound 0.3 µM, first compound 0.3 µM) of 3.79%, a viability, T/C (second compound 0.3 µM, first compound 0.949 µM) of 4.35% and a viability, T/C (second compound 0.3 µM, first compound 3 µM) of 4.53%. It also gave a viability, T/C (second compound 0.3 µM, first compound 9.49 µM) of 3.36% and a viability, T/C (second compound 0.3 µM, first compound 30 µM) of 3.46%.
`Cc1sc2c(c1C)C(c1ccc(Cl)cc1)=NC(CC(=O)Nc1ccc(O)cc1)c1nnc(C)n1-2` (stereo not given) + COc1cc2c(cc1O)CCNC21CSC2c3c(OC(C)=O)c(C)c4c(c3C(COC1=O)N1C(O)C3Cc5cc(C)c(OC)c(O)c5C(C21)N3C)OCO4 showed an IC50 (second compound 30 pM) of 142 nM, an IC50 (second compound 94.9 pM) of 104 nM and an IC50 (second compound 0.0003 µM) of 39.2 nM. The IC50 (second compound 0.000949 µM) was less than 9.49 nM, the IC50 (second compound 0.003 µM) was less than 9.49 nM and the viability, T/C (second compound 30 pM, first compound 0.00949 µM) was 97.4%. For the same compound, the viability, T/C (second compound 30 pM, first compound 0.03 µM) was 101%, the viability, T/C (second compound 30 pM, first compound 0.0949 µM) was 63.3% and the viability, T/C (second compound 30 pM, first compound 0.3 µM) was 22.3%. It also gave a viability, T/C (second compound 30 pM, first compound 0.949 µM) of 3.92%, a viability, T/C (second compound 30 pM, first compound 3 µM) of 0.75% and a viability, T/C (second compound 94.9 pM, first compound 0.00949 µM) of 99.1%. The viability, T/C (second compound 94.9 pM, first compound 0.03 µM) was 104%, the viability, T/C (second compound 94.9 pM, first compound 0.0949 µM) was 53.6% and the viability, T/C (second compound 94.9 pM, first compound 0.3 µM) was 7.33%. For the same compound, the viability, T/C (second compound 94.9 pM, first compound 0.949 µM) was 1.23%, the viability, T/C (second compound 94.9 pM, first compound 3 µM) was 0.57% and the viability, T/C (second compound 0.0003 µM, first compound 0.00949 µM) was 87.3%. For the same compound, the viability, T/C (second compound 0.0003 µM, first compound 0.03 µM) was 56%, the viability, T/C (second compound 0.0003 µM, first compound 0.0949 µM) was 28.3% and the viability, T/C (second compound 0.0003 µM, first compound 0.3 µM) was 4.02%. It also gave a viability, T/C (second compound 0.0003 µM, first compound 0.949 µM) of 0.43%, a viability, T/C (second compound 0.0003 µM, first compound 3 µM) of 0.38% and a viability, T/C (second compound 0.000949 µM, first compound 0.00949 µM) of 0.25%. The viability, T/C (second compound 0.000949 µM, first compound 0.03 µM) was 0.35%, the viability, T/C (second compound 0.000949 µM, first compound 0.0949 µM) was 0.19% and the viability, T/C (second compound 0.000949 µM, first compound 0.3 µM) was 0.18%. For the same compound, the viability, T/C (second compound 0.000949 µM, first compound 0.949 µM) was 0.18%, the viability, T/C (second compound 0.000949 µM, first compound 3 µM) was 0.57% and the viability, T/C (second compound 0.003 µM, first compound 0.00949 µM) was 1.49%. It also gave a viability, T/C (second compound 0.003 µM, first compound 0.03 µM) of 1.62%, a viability, T/C [1] of 1.47% and a viability, T/C [2] of 1.59%. The viability, T/C [3] was 2.52% and the viability, T/C [4] was 3.49%.
